In publication PMC8894198, “Biosynthetic Microcin J25 Exerts Strong Antibacterial, Anti-Inflammatory Activities, Low Cytotoxicity Without Increasing Drug-Resistance to Bacteria Target” (Frontiers in Immunology, 2022):
Converted amounts (≈) assume the structure as drawn. “And” between values parts separate entries of the source, which are not always exact repeats. Equal values may be shown once. Where a SMILES comes first, the peptide text is derived from it. Bridges are numbered along the chain shown (N, C = ends).

How the values were obtained:
[1] = tested on: E. coli SWI 535; type: cell-based; conditions: source pig tissue
Description: (§1) The minimum inhibitory concentration (MIC) refers to the lowest concentration that can produce a significant hindrance to bacterial growth in a drug sensitivity test by adopting a broth dilution, with certain refinements and modifications based on the previous description ([25], [26]). In short, MccJ25 was dissolved in sterilized distilled water (SDW), serial 2-fold dilutions were prepared in Mueller-Hinton broth (MHB) through a 96-well microtiter plate, and the final concentration of MccJ25 was maintained in the range of 0.003125 to 256 μg/mL. Then, 2 μL of standard and clinically relevant overnight broth cultures of bacteria were inoculated into each well at a concentration of 5 × 10^6 CFU/mL. Microtiter plates were incubated at 37°C for one full day. Two groups were set up: positive (medium with inoculum) and negative (medium only) controls. The minimum bactericidal concentration (MBC) was measured in LB medium and refers to the first drug dilution value at which the initial bacterial concentration was reduced by 99.99%. The final analysis was determined by the results of three replicated and independent experiments. To further assess and clarify the antimicrobial activity of MccJ25, the protective ability against E. coli adhesion, live/dead assay, and killing curve were performed, the detailed methods were provided in Supplementary Materials .

[2] = tested on: E. coli 521ZQE; type: cell-based; conditions: source pig tissue, three independent experiments
Description: as §1

[3] = tested on: E. coli CVCC1522; type: cell-based
Description: as §1

[4] = tested on: Salmonella CATT LX9; type: cell-based; conditions: source mastitis pathogens
Description: as §1

[5] = tested on: E. coli AZ1; type: cell-based; conditions: source pig tissue
Description: as §1

[6] = tested on: E. coli SWI 437; type: cell-based; conditions: source pig stool
Description: as §1

[7] = tested on: Salmonella CATT LX2; type: cell-based; conditions: source mastitis pathogens
Description: as §1

[8] = tested on: E. coli BRO 134; type: cell-based; conditions: source broiler stool
Description: as §1

[9] = tested on: Salmonella CATT W14; type: cell-based; conditions: source mastitis pathogens
Description: as §1

[10] = tested on: Salmonella CATT LX5; type: cell-based; conditions: source mastitis pathogens
Description: as §1

[11] = tested on: E. coli K99; type: cell-based
Description: as §1

[12] = tested on: E. coli K88; type: cell-based
Description: as §1

[13] = tested on: E. coli K88
Description: The resistance of MccJ25 to pepsin, trypsin and chymotrypsin was evaluated based on previous studies ([26]), with minor modifications. E. coli K88 cells were prepared (approximately 1 × 10^7 CFU/mL), and 1 mL of the bacterial suspension and MccJ25 were transferred into 9 mL of medium. For the control, MccJ25 was not added. LB agar inoculated with E. coli K88 cells (~10^5 viable cells/mL) was poured onto a plate containing an Oxford cup to form individual wells. Then, 2 and 4 h MccJ25 (1 × MIC) previously subjected to different treatments were added to the wells. The agar overlay was incubated overnight at 37°C, and the diameter of the growth inhibition zone was measured.
The simulated gastric fluid (SGF) and simulated intestinal fluid (SIF) were mainly based on the relevant contents of the Chinese Pharmacopoeia as described previously ([26]). SGF was configurated with 10 mg/mL pepsin, 0.03 M NaCl was used to blend the pH to 1.5, while SIF was configured with 10 mg/mL trypsin, 0.05 M KH2PO4 was used to blended pH as 7. SGF and SIF were then measured separately, and the antimicrobial activity of MccJ25 in serum was determined. E. coli K88 cells were grown in MHB (Difco Laboratories, Detroit, MI, USA). In short, 1 mL of the bacterial suspension and MccJ25 were transferred into 9 mL of medium. The control group was as follows: no MccJ25 was added to it. E. coli K88 cells with a live cell count maintained at approximately 10^5 cells per milliliter were inoculated on LB agar, which was then poured into plates equipped with Oxford cups, thus forming wells. Then, MccJ25 (1 × MIC) previously treated with SGF, SIF and serum for 2, 4, and 6 h was added to these wells. One of the agar substances covering the wells needs to be incubated overnight at 37°C, and finally, the size of its growth inhibition area, i.e., the diameter, needs to be determined.

[14] = LPS neutralization, chromogenic limulus amebocyte lysate assay; type: biochemical, E. coli; conditions: 8 μg/mL MccJ25, LPS 1 EU/mL, 37°C, A405
Description: The neutralizing impacts of MccJ25 on LPS were assessed according to a color-emitting […] assay. Levels of E. coli LPS (1 EU/mL) were prepared and combined with various concentrations of MccJ25 (1 to 128 µg/mL) and inoculated in the wells of sterile microtiter plates at 37°C. Then, 50 μL of the above mixture was extracted, the same volume of […] reagent was added, and the mixture was incubated for 10 min at 37°C. […] The reaction was finished by adding 25% acetic acid, and finally, its absorbance value at 405 nm was measured.

[15] = tested on: E. coli K88; test: MIC variability (cross-resistance) after 5 days at sub-MIC; type: cell-based; conditions: bacterial cells treated with MccJ25 (0.25 × MIC) for 5 days
Description: A 1:100 dilution of the bacteria was performed daily in the above MHB. Aliquots of the culture medium were used daily for 5 days thereafter to determine the MICs of ampicillin, tetracycline, aureomycin, and kanamycin. This study was performed based on our previous study ([29]).

[16] = LB medium, 99.99% reduction, three independent experiments
[17] = broth dilution in MHB, 37°C, three independent experiments
[18] = broth dilution in MHB, 37°C, one day, three independent experiments

CC[C@H](C)[C@H](NC(=O)CNC(=O)[C@@H](NC(=O)[C@H](Cc1ccccc1)NC(=O)[C@H](Cc1ccc(O)cc1)NC(=O)[C@@H]1CCC(=O)NCC(=O)NCC(=O)N[C@@H](C)C(=O)NCC(=O)N[C@@H](Cc2c[nH]cn2)C(=O)N[C@@H](C(C)C)C(=O)N2CCC[C@H]2C(=O)N1)C(C)C)C(=O)NCC(=O)N[C@H](C(=O)N1CCC[C@H]1C(=O)N[C@H](C(=O)N[C@@H](CO)C(=O)N[C@@H](Cc1ccccc1)C(=O)N[C@@H](Cc1ccc(O)cc1)C(=O)NCC(=O)O)[C@@H](C)CC)[C@@H](C)O [MccJ25, microcin J25] (GGAGHVPEYFVGIGTPISFYG-OH; lactam N-8 (inferred); C-terminus assumed)
MBC [1, 16]: 2.000 µg/mL (≈ 0.949 µM) | MIC [1, 17]: 0.500 µg/mL (≈ 0.237 µM) | MIC/MBC ([1]; ratio): 0.250 | MBC ([2]; LB medium, 99.99% reduction): 2.000 µg/mL (≈ 0.949 µM) | MIC ([2]; broth dilution in MHB, 37°C): 0.250 µg/mL (≈ 0.119 µM) | MBC [3, 16]: 0.500 µg/mL (≈ 0.237 µM) | MIC [3, 18]: 0.03 µg/mL and 0.030 µg/mL | MIC/MBC ([3]; ratio): 0.060 | MBC [4, 16]: 0.125 µg/mL (≈ 0.0593 µM) | MIC [4, 17]: 0.060 µg/mL (≈ 0.0285 µM) | MIC/MBC ([4]; ratio): 0.480 | MBC [5, 16]: 1.000 µg/mL (≈ 0.475 µM) | MIC [5, 17]: 0.500 µg/mL (≈ 0.237 µM) | MIC/MBC ([5]; ratio): 0.500 | MBC [6, 16]: 0.250 µg/mL (≈ 0.119 µM) | MIC [6, 17]: 0.030 µg/mL (≈ 0.0142 µM) | MIC/MBC ([6]; ratio): 0.120 | MBC [7, 16]: 0.125 µg/mL (≈ 0.0593 µM) | MIC [7, 17]: 0.030 µg/mL (≈ 0.0142 µM) | MIC/MBC ([7]; ratio): 0.240 | MBC [8, 16]: 2.000 µg/mL (≈ 0.949 µM) | MIC [8, 17]: 0.250 µg/mL (≈ 0.119 µM) | MIC/MBC ([8]; ratio): 0.125 | MBC [9, 16]: 0.250 µg/mL (≈ 0.119 µM) | MIC [9, 17]: 0.060 µg/mL (≈ 0.0285 µM) | MIC/MBC ([9]; ratio): 0.240 | MBC [10, 16]: 0.125 µg/mL (≈ 0.0593 µM) | MIC [10, 17]: 0.030 µg/mL (≈ 0.0142 µM) | MIC/MBC ([10]; ratio): 0.240 | MBC [11, 16]: 0.250 µg/mL (≈ 0.119 µM) | MIC [11, 18]: 0.030 µg/mL (≈ 0.0142 µM) | MIC/MBC ([11]; ratio): 0.120 | MBC [12, 16]: 0.500 µg/mL (≈ 0.237 µM) | MIC [12, 18]: 0.250 µg/mL (≈ 0.119 µM) | MIC/MBC ([12]; ratio): 0.500 | growth inhibition zone after heat treatment ([13]; MccJ25 1 × MIC pre-treated at 121°C for 20 minutes, Oxford cup, LB agar, overnight 37°C, n = 6): greater than 22 mm | growth inhibition zone after pH treatment ([13]; MccJ25 1 × MIC pre-treated at pH 2.0 to 9.0 for 2 h, Oxford cup, LB agar, overnight 37°C, n = 6): greater than 22 mm | antimicrobial activity after SIF, SGF or serum treatment ([13]; MccJ25 1 × MIC pre-treated with SGF, SIF and serum for 2, 4 and 6 h, inhibition zone): essentially the same as that of MccJ25 subjected to a single treatment | antimicrobial activity after protease challenge ([13]; MccJ25 1 × MIC pre-treated with pepsin, trypsin or chymotrypsin for 2 and 4 h, inhibition zone): retained | LPS neutralization [14]: 92.59% | change in the MICs of ciprofloxacin, ampicillin, tetracycline and kanamycin [15]: no changes were observed
